Reference: ChEMBL document CHEMBL4834476, “Potent antiviral activity of Agrimonia pilosa, Galla rhois, and their components against SARS-CoV-2” (2021)
The source made the active and inactive calls. No cut-off for these calls is given here.

Assays:
SARS-CoV-2 [1] = assay: (§1) Antiviral activity against SARS-CoV-2 NCCP43326 infected in African green monkey Vero cells assessed as reduction in spike protein production at 1 to 25 ug/ml treated with compound for 1 hr post-infection followed by drug wash-out and measured at 72 hrs post-infection by ELISA; type: functional, organism-based; details: Severe acute respiratory syndrome coronavirus 2, dose 1-25 µg/ml
SARS-CoV-2 [2] = assay: as §1, with “inhibition of plaque formation” for “reduction in spike protein production”, “at” for “at 1 to”, “crystal violet staining analysis relative to control” for “ELISA”; type: functional; details: Severe acute respiratory syndrome coronavirus 2, NCCP43326, Vero
SARS-CoV-2 [3] = assay: Antiviral activity against SARS-CoV-2 NCCP43326 infected in African green monkey Vero cells assessed as inhibition of plaque formation at 1 to 25 ug/ml treated with compound for 1 hr post-infection followed by drug wash-out and measured at 72 hrs post-infection by crystal violet staining analysis; type: functional; details: for Activity: Severe acute respiratory syndrome coronavirus 2, dose 1-25 µg/ml
SARS-CoV-2 [4] = assay: Antiviral activity against SARS-CoV-2 NCCP43326 infected in African green monkey Vero cells assessed as reduction in spike protein production at 1 to 25 ug/ml cells were infected with virus for 1 hr followed by wash-out period and later treated with compound and measured after 72 hrs by ELISA; type: functional, organism-based; details: Severe acute respiratory syndrome coronavirus 2, dose 1-25 µg/ml
SARS-CoV-2 [5] = assay: Antiviral activity against SARS-CoV-2 NCCP43326 infected in African green monkey Vero cells assessed as inhibition of plaque formation at 0.125 to 0.5 ug/ml treated with compound for 1 hr post-infection followed by drug wash-out and measured at 72 hrs post-infection by staining analysis; type: functional, organism-based; details: Severe acute respiratory syndrome coronavirus 2, dose 0.125-0.5 µg/ml

In the case of `O=c1c(O)c(-c2ccc(O)c(O)c2)oc2cc(O)cc(O)c12` [QUERCETIN], the Activity (SARS-CoV-2 [1]) was “Active”, the inhibition at 25 µg/mL (SARS-CoV-2 [2]) was 67.2% and the Activity (SARS-CoV-2 [3]) was “Active”. The Activity (SARS-CoV-2 [4]) was “Active”.

`C[C@H]1[C@H](C)CC[C@]2(C(=O)O)CC[C@]3(C)C(=CC[C@@H]4[C@@]5(C)CC[C@H](O)C(C)(C)[C@@H]5CC[C@]43C)[C@H]12` [URSOLIC ACID] was tested, and the Activity (SARS-CoV-2 [1]) was “Active”, the inhibition at 25 µg/mL (SARS-CoV-2 [2]) was 78.3% and the Activity (SARS-CoV-2 [3]) was “Active”. For the same compound, the Activity (SARS-CoV-2 [4]) was “Active”.

`O=C(OC[C@H]1O[C@@H](OC(=O)c2cc(O)c(O)c(O)c2)[C@H](OC(=O)c2cc(O)c(O)c(O)c2)[C@@H](OC(=O)c2cc(O)c(O)c(O)c2)[C@@H]1OC(=O)c1cc(O)c(O)c(O)c1)c1cc(O)c(O)c(O)c1` [PENTAGALLOYL GLUCOSE] was tested, and the Activity (SARS-CoV-2 [1]) was “Active”, the inhibition at 25 µg/mL (SARS-CoV-2 [2]) was 100% and the “inhibition (INH)” value (SARS-CoV-2 [3]; dose 1-25 µg/ml, at 1 to 25 µg/mL) was 100%. For the same compound, the Activity (SARS-CoV-2 [5]) was “Active” and the Activity (SARS-CoV-2 [4]) was “Active”.

With `CCOC(=O)c1cc(O)c(O)c(O)c1` [ETHYLGALLATE] the inhibition at 25 µg/mL (SARS-CoV-2 [2]) was 21.1% and the Activity (SARS-CoV-2 [3]) was “Active”.
